Marks after values point to notes of the source that are not given here.
Key:
Assay type in all cases: cell-based
[1] = system: living human skin explants; assay: Biochemical assay of MDA (lipid peroxidation) on living human skin explants exposed to pollutants
Procedure: Product A (Table 11) was diluted in water to obtain the following products at concentrations: product P1=A at 4%, product P2=A at 2% and product P3=A at 1%.
(§1) 59 human skin explants of an average diameter of 14 mm (±1 mm) were prepared on an abdoplasty coming from a person. The explants were kept in survival in BEM culture medium at 37° C. in a humid, 5%-CO2 atmosphere.
(§2) The tested products were topically applied on the basis of 2 μl per cm^2 and spread using a small spatula twice a day (morning and evening) on day 0, 1, 2, 3 and 4.
(§3) On D4, the explants of the batches ML and PML were placed on the 3D grid with 900 μl of HBSS and placed into the PolluBox® system.
(§4) 3 mL of the solution <<ML>> (supplemented with 150 μl/ml of NaCl 0.9%) were exposed by vaporization for 1 hour and half, as shown in the figure below.
The MDA assay was realized with an enhanced method of the TBARs (Thiobarbituric Acid Reactive Species) assay. The MDA was assayed in HBSS medium by addition of TBARs solution (thiobarbituric acid, hydrochloric acid and tricholoroacetic acid) and placed in a water bath (80° C. for 15 minutes). A lot of substances (like glucose) which are not related with lipoperoxidation, react with thiobarbituric acid (ThioBarbituric Acid Reagents=TBARS), so to enhance the specificity of the assay, the MDA was extracted by a liquid/liquid extraction with butanol. The MDA in butanol was measured in spectrofluorimetry (excitation: 515 nm, emission: 550 nm) using a Tecan Infinite M200 Pro microplate reader. Using this assay, MDA contained in the culture medium BEMc on […] was measured for the 4 explants per batch. The MDA concentration was expressed in pmol of MDA/ml of the medium. Concerned batches: all batches on day 5, 4 explants per batch.
The average of the blank batch TJ5 was calculated (154.0 nmol/L). Then, for each explant of MLJ5, this average value was subtracted from […]. That corresponds to calculating the delta (increase) of MDA induced by ML for each explant compared to the average of the batch without ML, it is ΔML.
These average deltas were then compared to the average delta of MDA induction without treatment (ΔML).

[2] = system: Aryl hydrocarbon receptor (AhR); assay: Immunostaining of AHR in human skin explants, image analysis
Procedure: as §1, §2, §3, §4
Aryl hydrocarbon receptor (AhR) is a transcriptional factor implicated in molecular response following the exposure of several compounds, including aromatic polycyclic hydrocarbon and ozone (Haarmann-Stemmann et al. 2012.JID 132:7-9; Afaq et al., 2009 JID 129:2396-2403). AhR is involved in activation of cytochrome family genes and CYP450 detoxification enzymes. In presence of pollution AhR is dissociated from the protein complex (HSP90), translocated to the nucleus, dimerized with ARNt, and binds to the DNA on target genes (Cytochrome family—activated in response to xenobiotics) (Ikuta et al., 2009. Biochemical pharmacology. 77:588-596). […] The immunostaining was performed using an automated slide processing system (Autostainer, Dako) and assessed by microscopical observation. Concerned batches: all the batches
The images analyses were performed on all the images (9 to 12 images) of each batch using the CellD storing software (Olympus Microscopy, Matrix Optics (M)SdnBhd, Taman Mayhang, Maylasia). For each batch of explants, the percentage of the region of interest covered by the staining (stained surface percentage) was determined by image analysis. […]
The ΔML for each treatment P was calculated using the same method to obtain the ΔPML, i.e. the variation of the Surf % induced by the pollutants exposure when treated with P. […]

[3] = system: human living skin explant; assay: TUNEL assay (UV-induced DNA damage) on human living skin explants; conditions: UV irradiated
Procedure: (§5) human skin explants of an average diameter of 12 mm (±1 mm) were prepared on an abdoplasty coming from a person). The explants were kept in survival in BEM culture medium at 37° C. in a humid, 5%-CO2 atmosphere.
(§6) On day 0 (D0), day 1, day 2 and day 3 (3 hours before irradiation), the tested products were applied topically on surface of skin explants at the rate of 2 mg/cm^2, twice a day for D1 and D2 and once on DO and D3. […] The medium was half renewed (1 ml per well) on day 2.
(§7) On D3, the culture media of all the batches was replaced by HBSS solution (Hank's Balanced Saline Solution; 1 ml per explant). The batches “UV” were irradiated by UVA+ UVB using a UV simulator Vibert Lourmat RMX 3W with a dose of 18 J/cm2 of UVA (4 MED, minimal erythemal dose) and 0.3 J/cm2 of UVB (2 MED). The unirradiated batches were kept in HBSS in the dark. At the end of the irradiation the explants were put back in 2 mL of BEM medium.
(§8) After fixation for 24 hours in buffered formalin, the samples were dehydrated and impregnated in paraffin using a Leica PEARL dehydration automat. The samples were embedded using a Leica EG 1160 embedding station. 5-μm-thick sections were made using a Leica RM 2125 Minot-type microtome, and the sections were mounted on Superfrost® histological glass slides. The frozen samples were cut into 7-μm-thick sections using a Leica CM 3050 cryostat. Sections were then mounted on Superfrost® plus silanized glass slides. The microscopical observations were realized using a Leica DMLB or Olympus BX43 microscope. Pictures were digitized with a numeric DP72 Olympus camera with CellD storing software.
DNA oxidization is a type of damage that can be promoted by reactive oxygen species (ROS), generated by UV exposure. […] The staining was assessed by microscopical observation. Batches analyzed were T, TUV, P1UV, P2UV, P3UV at day 4 also referred to as TJ4, TUVJ4, P1UVJ4, P2UVJ4, P3UVJ4 (T=Control batch non treated non irradiated; TJ4=T at Day 4 (D4); TUV: control batch non treated UV irradiated; TUVJ4=[…] at Day 4; P1J4: product A 4% non irradiated at D4; P2J4: product A 2% non irradiated at D4; P3J4: product A 1% non irradiated at D4; P1UV: product A 4% UV irradiated; P1UVJ4: product A 4% UV irradiated at D4 P2UV: product A 2% UV irradiated; P2UVJ4: product A 2% UV irradiated at D4; P3UV: product A 1% UV irradiated; P3UVJ4: product A 1% UV irradiated at D4

[4] = system: human living skin explant; assay: Immunostaining of carbonylated proteins (FTZ) on human living skin explants; conditions: UV irradiated
Procedure: as §5, §6, §7, §8
Protein carbonylation is a type of protein oxidation that can be promoted by reactive oxygen species (ROS), generated by UV exposure. FTZ marker assay was conducted by immunostaining in the living epidermis of human skin explant as follows: Carbonylated proteins were stained on frozen sections with the anti-carbonylated proteins probe (fluorescein-5-thiosemicarbazid-FTZ) (Lifetechnologies, Ref. F-121) diluted at 0.5 μM in MES-Na+ and incubated for 30 minutes in the dark and at room temperature. The staining was observed by epifluorescence and assessed by microscopical observations. Batches analyzed were T, TUV, P1UV, P2UV, P3UV at day 4 also referred to as TJ4, TUVJ4, P1UVJ4, P2UVJ4, P3UVJ4

[5] = system: human living skin explant; assay: Cell viability of human living skin explants (UV study); conditions: non irradiated; day 4
Procedure: as §5, §6, §7, §8

[6] = after pollutants exposure, day 5

O=C(O)[C@@H]1CCCN1 [Combination P6, L-Proline]
MDA, variation ΔPML vs ΔML ([1]; MDA induction by pollutants, day 5): −62%* | reduction of the increase of MDA ([1]; after pollutant exposure (ΔPML vs ΔML)): 62% | MDA, variation PML vs ML [1, 6]: −18%* | AHR, variation PML vs ML [2, 6]: −15%** | decrease of AhR expression compared to batch TJ5 ([2]; without pollutants, D5): 63% | AHR, variation P vs T ([2]; without pollutants, day 5): −63%* | activity against UV-induced DNA damage [3]: totally inhibits the increase of DNA damage | effect on UV-induced carbonylated proteins [4]: slightly inhibits the formation of carbonylated proteins | Cell Viability, variation vs TJ4 [5]: ↔ (indicates no variation)
